In ChEMBL document CHEMBL5137117, “Cytotoxic Cyclotides from Anchietea pyrifolia, a South American Plant Species” (J Nat Prod, 2022):
Bridge positions count the residues as written; N and C are the ends. Peptide text beside a SMILES is read from it.

Experiments:
[1] = Cytotoxicity against human HCT116-p53-null cells assessed as inhibition of cell growth measured after 72 hrs by MTT assay; assay type: functional, cell-based
[2] = system: MCF7; test: Cytotoxicity against human MCF7 cells assessed as inhibition of cell growth measured after 72 hrs by MTT assay; assay type: functional, cell-based; conditions: MCF7, 72 h
[3] = Hemolytic activity in human red blood cells at 78 uM incubated for 2 hrs by microplate reader assay relative to control; assay type: toxicity, cell-based, Erythrocyte; conditions: red blood cells (erythrocytes), read-out: Activity
[4] = system: HCT-116; test: Cytotoxicity against human HCT-116 cells assessed as inhibition of cell growth measured after 72 hrs by MTT assay; assay type: functional, cell-based; conditions: HCT-116, 72 h
[5] = Hemolytic activity in human red blood cells incubated for 2 hrs by microplate reader assay; assay type: toxicity, cell-based, Erythrocyte; conditions: red blood cells (erythrocytes), read-out: HD50

| SMILES | IC50 [1] | IC50 [2] | hemolysis at 2 h, 78 µM [3] | IC50 [4] | HC50 at 2 h [5] |
| --- | --- | --- | --- | --- | --- |
| CC[C@H](C)[C@@H]1NC(=O)[C@H](C)NC(=O)[C@H](C)NC(=O)[C@H](CO)NC(=O)[C@H]([C@@H](C)CC)NC(=O)[C@@H]2CSSC[C@@H]3NC(=O)[C@H](C(C)C)NC(=O)[C@H](CCCCN)NC(=O)[C@H](CC(N)=O)NC(=O)[C@H](CCCCN)NC(=O)[C@@H]4CSSC[C@H](NC(=O)[C@H](CO)NC(=O)[C@H](CCC(=O)O)NC(=O)CNC(=O)[C@H](CSSC[C@H](NC(=O)CNC1=O)C(=O)N[C@@H](CO)C(=O)N4)NC(=O)[C@@H]1CCCN1C(=O)[C@H]([C@@H](C)CC)NC(=O)CNC(=O)[C@H](CC(N)=O)NC(=O)[C@H](CCCNC(=N)N)NC(=O)[C@H](Cc1ccc(O)cc1)NC3=O)C(=O)N[C@@H](C(C)C)C(=O)N[C@@H](Cc1c[nH]c3ccccc13)C(=O)N[C@@H]([C@@H](C)CC)C(=O)N1CCC[C@H]1C(=O)N2 (cyclo(AAIGCSCKNKVCYRNGIPCGESCVWIPCIS); disulfide 5-19, 7-23, 12-28) | 1200 nM | 5600 nM | 23% | 800 nM | > 156 µM |
| CC[C@H](C)[C@@H]1NC(=O)[C@H](CO)NC(=O)[C@H](CC(N)=O)NC(=O)[C@H](CCCCN)NC(=O)[C@H](Cc2ccc(O)cc2)NC(=O)[C@@H]2CSSC[C@@H]3NC(=O)[C@@H]4CCCN4C(=O)[C@H]([C@@H](C)CC)NC(=O)[C@H](Cc4c[nH]c5ccccc45)NC(=O)[C@H](C(C)C)NC(=O)[C@@H]4CSSC[C@H](NC(=O)[C@H](CO)NC(=O)[C@H](CSSC[C@H](NC(=O)[C@@H]5CCCN5C1=O)C(=O)NCC(=O)N[C@@H](CCC(=O)O)C(=O)N[C@@H](CO)C(=O)N4)NC(=O)CNC(=O)[C@H](C)NC(=O)[C@H](CC(C)C)NC(=O)[C@H](C)NC(=O)[C@H]([C@@H](C)O)NC(=O)[C@H](C(C)C)NC(=O)[C@H]([C@@H](C)O)NC3=O)C(=O)N[C@@H](CCCCN)C(=O)N[C@@H](CC(N)=O)C(=O)N[C@@H](CCCCN)C(=O)N[C@@H](C(C)C)C(=O)N2 (cyclo(AGCSCKNKVCYKNSIPCGESCVWIPCTVTAL); disulfide 3-17, 5-21, 10-26) | 2300 nM | 7300 nM | < 50% | 1400 nM | > 78 µM |
| CC[C@H](C)[C@@H]1NC(=O)[C@H](C)NC(=O)[C@H](CO)NC(=O)[C@H](CO)NC(=O)[C@H]([C@@H](C)CC)NC(=O)[C@@H]2CSSC[C@@H]3NC(=O)[C@H](C(C)C)NC(=O)[C@H](CCCCN)NC(=O)[C@H](CC(N)=O)NC(=O)[C@H](CCCCN)NC(=O)[C@@H]4CSSC[C@H](NC(=O)[C@H](CO)NC(=O)[C@H](CCC(=O)O)NC(=O)CNC(=O)[C@H](CSSC[C@H](NC(=O)CNC1=O)C(=O)N[C@@H](CO)C(=O)N4)NC(=O)[C@@H]1CCCN1C(=O)[C@H]([C@@H](C)CC)NC(=O)CNC(=O)[C@H](CC(N)=O)NC(=O)[C@H](CCCNC(=N)N)NC(=O)[C@H](Cc1ccc(O)cc1)NC3=O)C(=O)N[C@@H](C(C)C)C(=O)N[C@@H](Cc1c[nH]c3ccccc13)C(=O)N[C@@H]([C@@H](C)CC)C(=O)N1CCC[C@H]1C(=O)N2 (cyclo(AIGCSCKNKVCYRNGIPCGESCVWIPCISS); disulfide 4-18, 6-22, 11-27) | 2100 nM | 7100 nM |  | 1400 nM | > 156 µM |
| CC[C@H](C)[C@@H]1NC(=O)[C@H](C)NC(=O)[C@H]([C@@H](C)O)NC(=O)[C@H](C(C)C)NC(=O)[C@H]([C@@H](C)O)NC(=O)[C@@H]2CSSC[C@@H]3NC(=O)[C@H](C(C)C)NC(=O)[C@H](CCCCN)NC(=O)[C@H](CO)NC(=O)[C@H](CCCCN)NC(=O)[C@@H]4CSSC[C@H](NC(=O)[C@H](CO)NC(=O)[C@H](CCC(=O)O)NC(=O)CNC(=O)[C@H](CSSC[C@H](NC(=O)CNC(=O)[C@H]([C@@H](C)CC)NC1=O)C(=O)N[C@@H](CO)C(=O)N4)NC(=O)[C@@H]1CCCN1C(=O)[C@H](CC(C)C)NC(=O)CNC(=O)[C@H](CC(N)=O)NC(=O)[C@H](CCCCN)NC(=O)[C@H](Cc1ccc(O)cc1)NC3=O)C(=O)N[C@@H](C(C)C)C(=O)N[C@@H](Cc1ccccc1)C(=O)N[C@@H](CC(C)C)C(=O)N1CCC[C@H]1C(=O)N2 (cyclo(AIIGCSCKSKVCYKNGLPCGESCVFLPCTVT); disulfide 5-19, 7-23, 12-28) | 1300 nM | 5800 nM |  | 1100 nM |  |
| CC[C@H](C)[C@@H]1NC(=O)CNC(=O)[C@H](CO)NC(=O)[C@H]([C@@H](C)CC)NC(=O)[C@@H]2CSSC[C@@H]3NC(=O)[C@H](C(C)C)NC(=O)[C@H](CCCCN)NC(=O)[C@H](CC(N)=O)NC(=O)[C@H](CO)NC(=O)[C@@H]4CSSC[C@H](NC(=O)[C@H](CO)NC(=O)[C@H](CCC(=O)O)NC(=O)CNC(=O)[C@H](CSSC[C@H](NC(=O)CNC(=O)[C@H](CC(C)C)NC1=O)C(=O)N[C@@H](CO)C(=O)N4)NC(=O)[C@@H]1CCCN1C(=O)[C@H](C(C)C)NC(=O)[C@H](CO)NC(=O)CNC(=O)[C@H](CC(N)=O)NC(=O)[C@H](Cc1ccc(O)cc1)NC(=O)[C@H](Cc1ccc(O)cc1)NC3=O)C(=O)N[C@@H](C(C)C)C(=O)N[C@@H](Cc1c[nH]c3ccccc13)C(=O)N[C@@H]([C@@H](C)CC)C(=O)N1CCC[C@H]1C(=O)N2 (cyclo(CGESCVWIPCISGILGCSCSNKVCYYNGSVP); disulfide 1-17, 5-19, 10-24) | 2600 nM | 5100 nM | 87% | 2300 nM | 22 µM |
| COc1cccc2c1C(=O)c1c(O)c3c(c(O)c1C2=O)C[C@@](O)(C(=O)CO)C[C@@H]3O[C@H]1C[C@H](N)[C@H](O)[C@H](C)O1 [DOXORUBICIN] |  | 500 nM |  |  |  |
